Experiments:
[1] = Degradation of K1 by sunlight; format: physicochemical; conditions: after 4 hours exposure to bright sunlight
Procedure: Degradation of K1 begins rapidly as soon as photosynthesis ceases and the rate of degradation is directly related to the intensity of UVB. Pure K1 in solution is denatured in 20 minutes in direct sunlight. […] Aside from the degradation of K1, a further problem herbivores have is that the concentration of other fat soluble nutrients such as lutein in green vegetation may be up to 100 times higher than the concentration of vitamin K1. Lutein competes with the absorption and metabolism of vitamin K1 (see Mitchell G. V, Cook K. K., Jenkins M. Y, Grundel E International Journal of Vitamin and Nutrition Research 2001, 71: 30) as well as high levels of Vitamin E (see Tovar A, Ameho C. K. Blumberg J. B., Peterson J. W, Smith D, Booth S. Nutrition And Metabolism 2006, 3:29) and therefore with the combination of UV, the plant matrix and competition with other fat soluble vitamins, the actual amount of vitamin K1 available is much less than quoted or expected. It follows that the vitamin K requirement for animals and humans has been grossly underestimated resulting in vitamin K deficiency.
It is known that Vitamin K1 (K1) is rapidly degraded by sunlight (UV). For vitamin K1 to be a stable component of a vitamin product, it is necessary to protect it using physical and/or chemical means. It was shown that a loss of approximately 20% of K1 occurred after 4 hours exposure to bright sunlight.

[2] = of the apparent concentration in the leaf, cited from earlier work
[3] = pure K1 in solution, direct sunlight; cited from earlier work

CC1=C(C/C=C(\C)CCC[C@H](C)CCC[C@H](C)CCCC(C)C)C(=O)c2ccccc2C1=O [Example K1, Phylloquinone]
loss of K1 [1]: approximately 20% | natural bioavailability when consumed with fat ([2]; consumed with fat): 15-16% | natural bioavailability [2]: 8-10% | time in which pure K1 is denatured [3]: 20 min

Reference: patent publication US8999962B2, “Method for increasing bone density and/or reducing any osteochondral defects in an animal and a composition including vitamin K” (priority 2008, dated 2015)
